Experimental data: US20250195484A1, “CEREBLON LIGANDS AND USES THEREOF” (priority 2022, published 2025)

Target: CRBN/DDB1 (Homo sapiens, UniProt Q96SW2)
Experiment: biochemical

Sequence of CRBN/DDB1 (Q96SW2 whole entry): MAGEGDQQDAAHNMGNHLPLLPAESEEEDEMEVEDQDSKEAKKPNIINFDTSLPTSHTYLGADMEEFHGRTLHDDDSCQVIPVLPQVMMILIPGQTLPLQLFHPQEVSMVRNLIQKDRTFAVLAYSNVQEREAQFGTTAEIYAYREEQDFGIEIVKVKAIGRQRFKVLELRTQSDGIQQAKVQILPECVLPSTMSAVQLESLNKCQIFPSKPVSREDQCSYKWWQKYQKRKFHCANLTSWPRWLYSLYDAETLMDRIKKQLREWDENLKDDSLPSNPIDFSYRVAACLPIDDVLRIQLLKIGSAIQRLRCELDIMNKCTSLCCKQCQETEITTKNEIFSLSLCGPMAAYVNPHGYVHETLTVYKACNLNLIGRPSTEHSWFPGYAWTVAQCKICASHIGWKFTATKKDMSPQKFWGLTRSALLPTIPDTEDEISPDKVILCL
Sequence of CRBN/DDB1 (Q16531 whole entry, further chain): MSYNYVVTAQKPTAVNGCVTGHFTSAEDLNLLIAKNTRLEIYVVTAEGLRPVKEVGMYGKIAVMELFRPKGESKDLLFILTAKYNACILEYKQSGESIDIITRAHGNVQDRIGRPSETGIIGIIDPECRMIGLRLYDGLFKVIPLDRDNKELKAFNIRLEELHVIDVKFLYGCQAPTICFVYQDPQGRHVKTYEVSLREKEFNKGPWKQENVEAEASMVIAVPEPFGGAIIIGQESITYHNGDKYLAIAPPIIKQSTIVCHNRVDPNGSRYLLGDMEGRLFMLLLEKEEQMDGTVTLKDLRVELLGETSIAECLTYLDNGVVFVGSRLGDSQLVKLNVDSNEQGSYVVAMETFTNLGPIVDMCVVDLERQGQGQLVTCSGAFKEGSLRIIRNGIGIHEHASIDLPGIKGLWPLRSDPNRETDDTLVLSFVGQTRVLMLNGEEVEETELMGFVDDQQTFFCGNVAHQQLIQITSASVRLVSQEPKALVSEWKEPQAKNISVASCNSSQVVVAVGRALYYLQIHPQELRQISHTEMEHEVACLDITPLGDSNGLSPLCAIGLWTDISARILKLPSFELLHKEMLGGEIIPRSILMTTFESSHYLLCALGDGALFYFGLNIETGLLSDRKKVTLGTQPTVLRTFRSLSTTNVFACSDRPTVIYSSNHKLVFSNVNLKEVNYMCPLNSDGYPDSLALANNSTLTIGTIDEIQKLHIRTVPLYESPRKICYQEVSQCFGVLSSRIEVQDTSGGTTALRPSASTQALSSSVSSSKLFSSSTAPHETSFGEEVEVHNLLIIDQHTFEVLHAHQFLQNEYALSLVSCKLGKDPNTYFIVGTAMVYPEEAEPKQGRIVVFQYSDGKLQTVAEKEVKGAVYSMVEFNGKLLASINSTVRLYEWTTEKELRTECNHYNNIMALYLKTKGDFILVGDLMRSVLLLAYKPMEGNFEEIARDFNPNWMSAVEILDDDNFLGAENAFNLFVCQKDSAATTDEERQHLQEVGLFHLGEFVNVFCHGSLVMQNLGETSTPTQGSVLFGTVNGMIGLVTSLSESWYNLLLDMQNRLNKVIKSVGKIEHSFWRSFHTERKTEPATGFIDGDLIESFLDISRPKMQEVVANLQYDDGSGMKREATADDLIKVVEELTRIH

SMILES | IC50
O=C1CCC(N2Cc3cc4c(cc3C2=O)OCC42CCNCC2)C(=O)N1 (centres unmarked) [Compound A1, 3-(7-oxo-5,7-dihydro-2H,6H-spiro[furo[2,3-f]isoindole-3,4′-piperidin]-6-yl)piperidine-2,6-dione] | 0.94 µM
O=C1CCC(N2Cc3cc4c(cc3C2=O)CCOC42CCNCC2)C(=O)N1 (centres unmarked) [Compound A3, 3-(1′-oxo-1′,3′,7′,8′-tetrahydro-2′H-spiro[piperidine-4,5′-pyrano[3,4-f]isoindol]-2′-yl)piperidine-2,6-dione] | 0.27 µM
CN1CCC2(CC1)COc1cc3c(cc12)CN(C1CCC(=O)NC1=O)C3=O (centres unmarked) [Compound A4, 3-(1′-methyl-7-oxo-5,7-dihydro-2H,6H-spiro[furo[2,3-f]isoindole-3,4′-piperidin]-6-yl)piperidine-2,6-dione] | 0.096 µM
CC(=O)N1CCC2(CC1)COc1cc3c(cc12)CN(C1CCC(=O)NC1=O)C3=O (centres unmarked) [Compound A5, 3-(1′-acetyl-7-oxo-5,7-dihydro-2H,6H-spiro[furo[2,3-f]isoindole-3,4′-piperidin]-6-yl)piperidine-2,6-dione] | 3.8 µM
CN1CCC2(CC1)OCCc1cc3c(cc12)CN(C1CCC(=O)NC1=O)C3=O (centres unmarked) [Compound A6, 3-(1-methyl-1′-oxo-1′,3′,7′,8′-tetrahydro-2′H-spiro[piperidine-4,5′-pyrano[3,4-f]isoindol]-2′-yl)piperidine-2,6-dione] | 2.2 µM
CC(=O)N1CCC2(CC1)OCCc1cc3c(cc12)CN(C1CCC(=O)NC1=O)C3=O (centres unmarked) [Compound A7, 3-(1-acetyl-1′-oxo-1′,3′,7′,8′-tetrahydro-2′H-spiro[piperidine-4,5′-pyrano[3,4-f]isoindol]-2′-yl)piperidine-2,6-dione] | 3 µM
O=C1CCC(N2Cc3c(ccc4c3OCC43CCCNCC3)C2=O)C(=O)N1 (centres unmarked) [Compound A8, 3-(6′-oxo-6′,8′-dihydro-2′H,7′H-spiro[azepane-4,3′-furo[2,3-e]isoindol]-7′-yl)piperidine-2,6-dione] | 0.75 µM
O=C1CCC(N2Cc3c(ccc4c3OCC43CCNC3)C2=O)C(=O)N1 (centres unmarked) [Compound A9, 3-(6-oxo-6,8-dihydro-2H,7H-spiro[furo[2,3-e]isoindole-3,3′-pyrrolidin]-7-yl)piperidine-2,6-dione] | 0.21 µM
CC(C)(C)OC(=O)N1CCC2(CC1)COc1cc3c(cc12)CN(C1CCC(=O)NC1=O)C3=O (centres unmarked) [Compound A14, tert-butyl 6-(2,6-dioxopiperidin-3-yl)-7-oxo-6,7-dihydro-2H,5H-spiro[furo[2,3-f]isoindole-3,4′-piperidine]-1′-carboxylate] | 0.29 µM
O=C1CC[C@H](N2Cc3c(ccc4c3OCC43CCNCC3)C2=O)C(=O)N1 [Compound A15, (S)-3-(6-oxo-6,8-dihydro-2H,7H-spiro[furo[2,3-e]isoindole-3,4′-piperidin]-7-yl)piperidine-2,6-dione] | 0.055 µM
O=C1CCC(N2Cc3c(ccc4c3OCC43CCNCC3(F)F)C2=O)C(=O)N1 (centres unmarked) [Compound A17, 3-(3′,3′-difluoro-6-oxo-6,8-dihydro-2H,7H-spiro[furo[2,3-e]isoindole-3,4′-piperidin]-7-yl)piperidine-2,6-dione] | 0.23 µM
O=C1CC[C@H](NC(=O)c2ccc3c(n2)OCC32CCNCC2)C(=O)N1 [Compound A18, (S)-N-(2,6-dioxopiperidin-3-yl)-2H-spiro[furo[2,3-b]pyridine-3,4′-piperidine]-6-carboxamide] | > 10000 µM
Cc1cc2c(c3c1C(=O)N([C@H]1CCC(=O)NC1=O)C3)OCC21CCNCC1 [Compound A19, (S)-3-(5-methyl-6-oxo-6,8-dihydro-2H,7H-spiro[furo[2,3-e]isoindole-3,4′-piperidin]-7-yl)piperidine-2,6-dione] | 0.18 µM
O=C1CC[C@H](N2Cc3c4c(cc(Cl)c3C2=O)C2(CCNCC2)CO4)C(=O)N1 [Compound A20, (S)-3-(5-chloro-6-oxo-6,8-dihydro-2H,7H-spiro[furo[2,3-e]isoindole-3,4′-piperidin]-7-yl)piperidine-2,6-dione] | 0.038 µM
